# Reference: ChEMBL document CHEMBL5137120, “Modified ent-Abietane Diterpenoids from the Leaves of Suregada zanzibariensis” (J Nat Prod, 2022)
# Tests used:
# [1] = Cytotoxicity against African green monkey GMK-AH-1 cell assessed as cell growth inhibition at >=100 uM incubated for 3 days by CellTiter96 Aqueous one reagent based assay; format: toxicity; details: chlorocebus aethiops, gmk-ah-1, 72 h, time 3 day
# [2] = Cytotoxicity against human THP-1 cells assessed as cell growth inhibition incubated for 24 hrs by MTT assay; format: toxicity, cell-based
smiles,measurement,setting,value
C=C1[C@@H](C)CC(=O)[C@@]2(C)[C@@H]3C[C@H]4OC(=O)C(C)=C4[C@H]4O[C@]43CC[C@]12O,Activity,[1],Non-Toxic
C=C1[C@@H](C)CC(=O)[C@@]2(C)[C@@H]3C[C@H]4OC(=O)C(C)=C4C=C3CC[C@]12O,Activity,[1],Non-Toxic
CC(C)[C@H]1CC[C@@H]2[C@]1(C)CC[C@]1(C)[C@H]3CC=C4[C@@H](CC[C@H](O)C4(C)C)[C@]3(C)CC[C@@]21C,IC50 at 24 h,[2],1780 nM
same,Activity,[1],Non-Toxic
